Assays:
Type in all cases: functional
[1] = Antiproliferative activity against human leukemia cells after 48 hrs by cell counting analysis
[2] = Antiproliferative activity against human non-small cell lung cancer cells after 48 hrs by cell counting analysis; details: Cancer cell lines
[3] = Antiproliferative activity against human colon cancer cells after 48 hrs by cell counting analysis; details: Cancer cell lines
[4] = Antiproliferative activity against human CNS cancer cells after 48 hrs by cell counting analysis; details: Cancer cell lines
[5] = Antiproliferative activity against human melanoma cells after 48 hrs by cell counting analysis
[6] = Antiproliferative activity against human ovarian cancer cells after 48 hrs by cell counting analysis; details: Cancer cell lines
[7] = Antiproliferative activity against human renal cancer cells after 48 hrs by cell counting analysis; details: Cancer cell lines
[8] = Antiproliferative activity against human prostate cancer cells after 48 hrs by cell counting analysis; details: Cancer cell lines
[9] = Antiproliferative activity against human breast cancer cells after 48 hrs by cell counting analysis; details: Cancer cell lines
CCRF-CEM = assay: Growth inhibition of human CCRF-CEM cells after 48 hrs by cell counting analysis; details: at 10 µM
HL-60 = assay: Growth inhibition of human HL60 cells after 48 hrs by cell counting analysis; details: at 10 µM
K562 = assay: Growth inhibition of human K562 cells after 48 hrs by cell counting analysis; details: at 10 µM
RPMI-8226 = assay: Growth inhibition of human RPMI8226 cells after 48 hrs by cell counting analysis; details: at 10 µM
SR = assay: Growth inhibition of human SR cells after 48 hrs by cell counting analysis; details: at 10 µM
A549 = assay: Growth inhibition of human A549 cells after 48 hrs by cell counting analysis; details: at 10 µM
EKVX = assay: Growth inhibition of human EKVX cells after 48 hrs by cell counting analysis; details: at 10 µM
HOP-62 = assay: Growth inhibition of human HOP62 cells after 48 hrs by cell counting analysis; details: at 10 µM
HOP-92 = assay: Growth inhibition of human HOP92 cells after 48 hrs by cell counting analysis; details: at 10 µM
NCI-H226 = assay: Growth inhibition of human NCI-H226 cells after 48 hrs by cell counting analysis; details: at 10 µM
NCI-H23 = assay: Growth inhibition of human NCI-H23 cells after 48 hrs by cell counting analysis; details: at 10 µM
[10] = Growth inhibition of human NCI-322M cells after 48 hrs by cell counting analysis; details: at 10 µM
NCI-H522 = assay: Growth inhibition of human NCI-H522 cells after 48 hrs by cell counting analysis; details: at 10 µM
HCC 2998 = assay: Growth inhibition of human HCC2998 cells after 48 hrs by cell counting analysis; details: at 10 µM
HCT-15 = assay: Growth inhibition of human HCT15 cells after 48 hrs by cell counting analysis; details: at 10 µM
HT-29 = assay: Growth inhibition of human HT-29 cells after 48 hrs by cell counting analysis; details: at 10 µM
KM12 = assay: Growth inhibition of human KM12 cells after 48 hrs by cell counting analysis; details: at 10 µM
SW-620 = assay: Growth inhibition of human SW620 cells after 48 hrs by cell counting analysis; details: at 10 µM
SF-268 = assay: Growth inhibition of human SF268 cells after 48 hrs by cell counting analysis; details: at 10 µM
SF-295 = assay: Growth inhibition of human SF295 cells after 48 hrs by cell counting analysis; details: at 10 µM
SF-539 = assay: Growth inhibition of human SF539 cells after 48 hrs by cell counting analysis; details: at 10 µM
SNB-19 = assay: Growth inhibition of human SNB19 cells after 48 hrs by cell counting analysis; details: at 10 µM
SNB-75 = assay: Growth inhibition of human SNB75 cells after 48 hrs by cell counting analysis; details: at 10 µM
U-251 = assay: Growth inhibition of human U251 cells after 48 hrs by cell counting analysis; details: at 10 µM
LOX IMVI = assay: Growth inhibition of human LOXIMVI cells after 48 hrs by cell counting analysis; details: at 10 µM
Malme-3M = assay: Growth inhibition of human MALME-3M cells after 48 hrs by cell counting analysis; details: at 10 µM
M14 = assay: Growth inhibition of human M14 cells after 48 hrs by cell counting analysis; details: at 10 µM
MDA-MB-435 = assay: Growth inhibition of human MDA-MB-435 cells after 48 hrs by cell counting analysis; details: at 10 µM
SK-MEL-2 = assay: Growth inhibition of human SK-MEL-2 cells after 48 hrs by cell counting analysis; details: at 10 µM
SK-MEL-28 = assay: Growth inhibition of human SK-MEL-28 cells after 48 hrs by cell counting analysis; details: at 10 µM
SK-MEL-5 = assay: Growth inhibition of human SK-MEL-5 cells after 48 hrs by cell counting analysis; details: at 10 µM
UACC-257 = assay: Growth inhibition of human UACC257 cells after 48 hrs by cell counting analysis; details: at 10 µM
UACC-62 = assay: Growth inhibition of human UACC62 cells after 48 hrs by cell counting analysis; details: at 10 µM
IGROV-1 = assay: Growth inhibition of human IGROV1 cells after 48 hrs by cell counting analysis; details: at 10 µM
OVCAR-3 = assay: Growth inhibition of human OVCAR3 cells after 48 hrs by cell counting analysis; details: at 10 µM
OVCAR-4 = assay: Growth inhibition of human OVCAR4 cells after 48 hrs by cell counting analysis; details: at 10 µM
OVCAR-5 = assay: Growth inhibition of human OVCAR5 cells after 48 hrs by cell counting analysis; details: at 10 µM
OVCAR-8 = assay: Growth inhibition of human OVCAR8 cells after 48 hrs by cell counting analysis; details: at 10 µM
[11] = Growth inhibition of human NCI-ADR-RES cells after 48 hrs by cell counting analysis; details: at 10 µM
SK-OV-3 = assay: Growth inhibition of human SKOV3 cells after 48 hrs by cell counting analysis; details: at 10 µM
ACHN = assay: Growth inhibition of human ACHN cells after 48 hrs by cell counting analysis; details: at 10 µM
CAKI-1 = assay: Growth inhibition of human Caki1 cells after 48 hrs by cell counting analysis; details: at 10 µM
RXF 393 = assay: Growth inhibition of human RXF393 cells after 48 hrs by cell counting analysis; details: at 10 µM
SN12C = assay: Growth inhibition of human SN12C cells after 48 hrs by cell counting analysis; details: at 10 µM
TK-10 = assay: Growth inhibition of human TK10 cells after 48 hrs by cell counting analysis; details: at 10 µM
UO-31 = assay: Growth inhibition of human UO31 cells after 48 hrs by cell counting analysis; details: at 10 µM
PC-3 = assay: Growth inhibition of human PC3 cells after 48 hrs by cell counting analysis; details: at 10 µM
MCF7 = assay: Growth inhibition of human MCF7 cells after 48 hrs by cell counting analysis; details: at 10 µM
MDA-MB-231 = assay: Growth inhibition of human MDA-MB-231 cells after 48 hrs by cell counting analysis; details: at 10 µM
BT-549 = assay: Growth inhibition of human BT549 cells after 48 hrs by cell counting analysis; details: at 10 µM
T47D = assay: Growth inhibition of human T47D cells after 48 hrs by cell counting analysis; details: at 10 µM
MDA-MB-468 = assay: Growth inhibition of human MDA-MB-468 cells after 48 hrs by cell counting analysis; details: at 10 µM
MOLT-4 = assay: Growth inhibition of human MOLT4 cells after 48 hrs by cell counting analysis; details: at 10 µM
HCT-116 = assay: Growth inhibition of human HCT116 cells after 48 hrs by cell counting analysis; details: at 10 µM
[12] = read-out: LC50 (the source's name)

## O=c1[nH]cc(F)c(=O)[nH]1 [FLUOROURACIL]
[1]
  TGI: > 100 µM
[1]; [12]
  CC50: > 100 µM
[2]
  GI50: > 100 µM
  TGI: > 100 µM
[2]; [12]
  CC50: > 100 µM
[3]
  GI50: 8.4 µM
  TGI: > 100 µM
[3]; [12]
  CC50: > 100 µM
[4]
  TGI: > 100 µM
[4]; [12]
  CC50: > 100 µM
[5]
  GI50: 70.6 µM
  TGI: > 100 µM
[5]; [12]
  CC50: > 100 µM
[6]
  GI50: 61.4 µM
  TGI: > 100 µM
[6]; [12]
  CC50: > 100 µM
[7]
  GI50: 45.6 µM
  TGI: > 100 µM
[7]; [12]
  CC50: > 100 µM
[8]
  GI50: 22.7 µM
  TGI: > 100 µM
[8]; [12]
  CC50: > 100 µM
[9]
  GI50: 76.4 µM
  TGI: > 100 µM
[9]; [12]
  CC50: > 100 µM

## Cc1ccc(-c2csc(NC(=O)CN3CCN(c4ccccc4)CC3)n2)cc1
CCRF-CEM
  growth inhibition (GI): 13.4%
HL-60
  growth inhibition (GI): <10%
K562
  growth inhibition (GI): <10%
RPMI-8226
  growth inhibition (GI): <10%
SR
  growth inhibition (GI): <10%
A549
  growth inhibition (GI): 31.4%
EKVX
  growth inhibition (GI): 32.5%
HOP-62
  growth inhibition (GI): <10%
HOP-92
  growth inhibition (GI): <10%
NCI-H226
  growth inhibition (GI): <10%
NCI-H23
  growth inhibition (GI): 18.9%
[10]
  growth inhibition (GI): 21.4%
NCI-H522
  growth inhibition (GI): <10%
HCC 2998
  growth inhibition (GI): 15.2%
HCT-15
  growth inhibition (GI): 10.6%
HT-29
  growth inhibition (GI): <10%
KM12
  growth inhibition (GI): <10%
SW-620
  growth inhibition (GI): <10%
SF-268
  growth inhibition (GI): 13.9%
SF-295
  growth inhibition (GI): 27.3%
SF-539
  growth inhibition (GI): <10%
SNB-19
  growth inhibition (GI): <10%
SNB-75
  growth inhibition (GI): 12.1%
U-251
  growth inhibition (GI): <10%
LOX IMVI
  growth inhibition (GI): 17.2%
Malme-3M
  growth inhibition (GI): <10%
M14
  growth inhibition (GI): <10%
MDA-MB-435
  growth inhibition (GI): 17.6%
SK-MEL-2
  growth inhibition (GI): <10%
SK-MEL-28
  growth inhibition (GI): <10%
SK-MEL-5
  growth inhibition (GI): 27.6%
UACC-257
  growth inhibition (GI): <10%
UACC-62
  growth inhibition (GI): 23.6%
IGROV-1
  growth inhibition (GI): 33.8%
OVCAR-3
  growth inhibition (GI): <10%
OVCAR-4
  growth inhibition (GI): 28.1%
OVCAR-5
  growth inhibition (GI): <10%
OVCAR-8
  growth inhibition (GI): <10%
[11]
  growth inhibition (GI): 21%
SK-OV-3
  growth inhibition (GI): <10%
ACHN
  growth inhibition (GI): <10%
CAKI-1
  growth inhibition (GI): 24.6%
RXF 393
  growth inhibition (GI): <10%
SN12C
  growth inhibition (GI): 17%
TK-10
  growth inhibition (GI): <10%
UO-31
  growth inhibition (GI): 48.2%
PC-3
  growth inhibition (GI): 31.1%
MCF7
  growth inhibition (GI): 20.9%
MDA-MB-231
  growth inhibition (GI): <10%
BT-549
  growth inhibition (GI): <10%
T47D
  growth inhibition (GI): 20.8%
MDA-MB-468
  growth inhibition (GI): 23.1%
MOLT-4
  growth inhibition (GI): 23.7%
HCT-116
  growth inhibition (GI): <10%

## O=C(CCN1CCN(c2ccccc2)CC1)Nc1nc(-c2ccc(Cl)cc2)cs1
CCRF-CEM
  growth inhibition (GI): 16.3%
HL-60
  growth inhibition (GI): 19.6%
K562
  growth inhibition (GI): 21.6%
RPMI-8226
  growth inhibition (GI): 25.4%
SR
  growth inhibition (GI): <10%
A549
  growth inhibition (GI): 12%
EKVX
  growth inhibition (GI): <10%
HOP-62
  growth inhibition (GI): <10%
HOP-92
  growth inhibition (GI): 23.7%
NCI-H226
  growth inhibition (GI): 14.1%
NCI-H23
  growth inhibition (GI): 13.7%
[10]
  growth inhibition (GI): 27.8%
NCI-H522
  growth inhibition (GI): 18.7%
HCC 2998
  growth inhibition (GI): <10%
HCT-15
  growth inhibition (GI): <10%
HT-29
  growth inhibition (GI): 18.6%
KM12
  growth inhibition (GI): <10%
SW-620
  growth inhibition (GI): <10%
SF-268
  growth inhibition (GI): <10%
SF-295
  growth inhibition (GI): 24.2%
SF-539
  growth inhibition (GI): <10%
SNB-19
  growth inhibition (GI): <10%
SNB-75
  growth inhibition (GI): 14.9%
U-251
  growth inhibition (GI): <10%
LOX IMVI
  growth inhibition (GI): <10%
Malme-3M
  growth inhibition (GI): <10%
M14
  growth inhibition (GI): <10%
MDA-MB-435
  growth inhibition (GI): <10%
SK-MEL-2
  growth inhibition (GI): <10%
SK-MEL-28
  growth inhibition (GI): <10%
SK-MEL-5
  growth inhibition (GI): 10.1%
UACC-257
  growth inhibition (GI): <10%
UACC-62
  growth inhibition (GI): 20.5%
IGROV-1
  growth inhibition (GI): <10%
OVCAR-3
  growth inhibition (GI): <10%
OVCAR-4
  growth inhibition (GI): <10%
OVCAR-5
  growth inhibition (GI): <10%
OVCAR-8
  growth inhibition (GI): <10%
[11]
  growth inhibition (GI): <10%
SK-OV-3
  growth inhibition (GI): <10%
ACHN
  growth inhibition (GI): <10%
CAKI-1
  growth inhibition (GI): <10%
RXF 393
  growth inhibition (GI): <10%
SN12C
  growth inhibition (GI): 11.9%
TK-10
  growth inhibition (GI): <10%
UO-31
  growth inhibition (GI): 38.6%
PC-3
  growth inhibition (GI): 12%
MCF7
  growth inhibition (GI): 10.9%
MDA-MB-231
  growth inhibition (GI): <10%
BT-549
  growth inhibition (GI): <10%
T47D
  growth inhibition (GI): <10%
MDA-MB-468
  growth inhibition (GI): <10%
MOLT-4
  growth inhibition (GI): 36.3%
HCT-116
  growth inhibition (GI): 19.4%
